Activity calls are given as the source filed them. No cut-off for these calls is given here.
How the values were obtained:
Cnaphalocrocis medinalis = experiment: Insecticidal activity against Cnaphalocrocis medinalis measured 5 days after artificial infestation; type: functional
Plutella xylostella = experiment: Insecticidal activity against Plutella xylostella (diamondback moth) measured 5 days after artificial infestation; type: functional
Nephotettix cincticeps = experiment: Insecticidal activity against Nephotettix cincticeps (green rice leafhopper) measured 5 days after artificial infestation; type: functional
Spodoptera litura [1] = experiment: Insecticidal activity against Spodoptera litura measured 5 days after artificial infestation; type: functional
Spodoptera litura [2] = experiment: Insecticidal activity against Spodoptera litura at 1000 ppm measured 5 days after artificial infestation; type: functional, organism-based

| Structure (SMILES) | LC90 (Cnaphalocrocis medinalis) | LC90 (Plutella xylostella) | LC90 (Nephotettix cincticeps) | LC90 (Spodoptera litura [1]) | Activity (Spodoptera litura [2]) |
| --- | --- | --- | --- | --- | --- |
| O=[N+]([O-])/C=C1\SCCN1Cc1ccc(Cl)nc1 | 8 ppm | 1.6 ppm | 0.32 ppm | 1.6 ppm | – |
| O=[N+]([O-])/N=C1\SCCN1Cc1ccc(Cl)nc1 | – | – | 1.6 ppm | 200 ppm | – |
| O=[N+]([O-])/N=c1\sccn1Cc1ccc(Cl)nc1 | – | – | 0.32 ppm | 1000 ppm | – |
| O=[N+]([O-])/C=C1\OCCN1Cc1ccc(Cl)nc1 | – | – | 8 ppm | 1000 ppm | – |
| O=[N+]([O-])/C=C1\CCCN1Cc1ccc(Cl)nc1 | – | – | 1.6 ppm | 200 ppm | – |
| O=[N+]([O-])C=C1NCCCS1 | 200 ppm | 1000 ppm | 8 ppm | 40 ppm | – |
| O=[N+]([O-])/N=C1\NCCN1Cc1ccc(Cl)nc1 [IMIDACLOPRID] | 200 ppm | 200 ppm | 0.32 ppm | 40 ppm | – |
| O=[N+]([O-])/C=C1\NCCN1Cc1ccc(Cl)nc1 | 200 ppm | 40 ppm | 0.32 ppm | 8 ppm | – |
| O=[N+]([O-])/C=C1\NCCS1 [2-(NITROMETHYLENE)THIAZOLIDINE] | – | – | 1000 ppm | – | inactive |

From ChEMBL document CHEMBL3046378, “3-(6-Chloronicotinyl)-2-nitromethylene-thiazolidine as a New Class of Insecticide Acting against Lepidoptera Species” (1992)
